Source: patent US9839241B2, “Methods, devices and systems for pulmonary delivery of active agents” (priority 2014, dated 2017)
Entries after “also recorded” stand apart in the source; their conditions may differ. Read-outs that look alike come from different tables or passages of the source.

Key:
neuropathic pain = experiment: VAS pain intensity after pulmonary delivery of Δ^9-THC with the MDI; type: in vivo, human
Procedure: (§1) The study was used to further evaluate the pharmacodynamic effect of pulmonary delivery of Δ^9-THC on pain reduction from baseline using a 10 cm visual analog scale (VAS) pain scale (0 being no pain; and 10 being worst possible pain); for monitoring adverse effects, blood pressure and heart rate, and for estimating the degree of satisfaction with the use of the MDI on a 0-10 scale.
The study was conducted at the Pain Research Unit of Rambam Health Care Campus in Haifa, Israel.
(§2) Pain intensity reduction was assessed as a therapeutic effect by asking participants to indicate the intensity of their current pain on a 100 mm visual analog scale (VAS) between 0 (no pain) and 100 (worst possible pain) at baseline (prior to the inhalation) and at 20 and 90 minutes following the pulmonary delivery of the pharmaceutically active agent from cannabis. Adverse effects, in the form of psychotropic symptoms, were recorded at 5, 15, 30, 60 and 120 minutes post pulmonary delivery, along with those spontaneously reported by the participants. Adverse effects were evaluated according to standardized criteria in terms of severity, frequency, duration and relationship to the study's active agent. Adverse effects were graded using the NIH Division of AIDS table for scoring severity of adult adverse experiences. Blood pressure and pulse rate were also recorded before, during and after the pulmonary delivery.
Results are reported herein as mean values±1 standard deviation (±SD). For each one of the measured effects (VAS pain intensity, systolic and diastolic blood pressure, heart rate and satisfaction score), the mean and 95% confidence interval (CI) at different time points was plotted. Differences between VAS pain intensity values and satisfaction scores, before and after inhalation, were tested by two-tailed paired Student t-test. Blood pressure and heart rate values were compared among different time points by one-way ANOVA. P-values <0.05 were accepted as significant. All statistical analyses were performed using Minitab Statistical Software, version 16.

[1] = PK study: plasma Δ^9-THC levels after single dose inhalation from cannabis flos with the metered-dose inhaler (MDI)
Procedure: A study was conducted in order to characterize the inter-individual variability of Δ^9-THC plasma levels during the absorption phase, upon using a hand-held metered-dose MDI device configured for pulmonary delivering pre-determined amounts of the active agent Δ^9-THC from a solid substance (cannabis-derived plant substance) upon heating the substance.
Routine medications were continued throughout the trial.

[2] = Analysis of residual cannabis material after vaporization in the MDI
[3] = Monitoring of adverse effects, blood pressure and heart rate after inhalation; type: in vivo, human
Procedure: as §1, §2
Results are reported herein as mean values±1 standard deviation (±SD). […]

[4] = cited from earlier work; for mean Cmax increase per mg Δ^9-THC: continuous blood withdrawal
chronic neuropathic pain = conditions: cited from earlier work; for reduction of pain intensity: Wilsey et al. 2013, vaporized 10.3 mg total available Δ^9-THC in two sessions

With `CCCCCc1cc(O)c2c(c1)OC(C)(C)[C@@H]1CCC(C)=C[C@@H]21` [Δ^9-THC, Δ9-tetrahydrocannabinol] the “decrease of VAS pain intensity from baseline” value (neuropathic pain; 20 minutes after inhalation, baseline 7.5±1.4, 95% CI [2.1, 4.9], P=0.001) was 3.4 points, the “VAS pain intensity versus baseline” value (neuropathic pain; 90 minutes post-dosing) was “virtually identical results as at baseline” and the “time to reversal of pain reduction” value (neuropathic pain; single inhalation, 3.08±0.02 mg total available Δ^9-THC) was ≤ 90 min. For the same compound, the “inter-individual variability of Cmax (coefficient of variation)” value (“inter-individual variability of Cmax” below) ([1]; MDI device) was 25.3%, the AUC ([1]; human, plasma, inhaled or intranasal, 3.08 mg, AUC (Mean), mean of 8 participants, same single dose inhalation) was 10.1 ng·h/mL and the Cmax ([1]; human, plasma, inhaled or intranasal, 3.08 mg, Cmax (Mean), mean of 8 participants, same single dose inhalation) was 38 ng/mL. The Tmax ([1]; human, plasma, inhaled or intranasal, 3.08 mg, Tmax (Mean), mean of 8 participants, same single dose inhalation) was 3 min, the AUC(0-inf) ([1]; human, plasma, inhaled, 3.08 mg) was 10.1 ng·h/mL and the “time of first detection in blood sample” value ([1]; post-inhalation, six patients without residual plasma THC at baseline) was 1 min. The “increase of Cmax per mg of Δ^9-THC available in the cannabis used (mean)” value ([1]; pulmonary delivery method described herein (MDI)) was 12.3 ng/ml/mg Δ^9-THC, the “plasma concentration profile over time” value ([1]; pulmonary delivery with the MDI) was “rapid absorption, followed by bi-phasic decline in plasma concentration over time” and the “cannabinol (product of THC oxidation) in residues” value [2] was “no increase of cannabinol”. The “time to full recovery from light headedness” value ([3]; all the other patients, post-inhalation) was ≤ 30 min, the “adverse effects (overall)” value ([3]; single dose inhalation with MDI, listed as THC) was “minimal, reversible and well tolerated; also recorded: minimal, reversible and receded rapidly” and the “mean Cmax increase per mg Δ^9-THC” value ([4]; after the first puff of a 1.75% Δ^9-THC cigarette) was 3.54 ng/ml per mg Δ^9-THC. The “mean Cmax increase per mg Δ^9-THC” value ([4]; after the first puff of a 3.55% Δ^9-THC cigarette) was 4.28 ng/ml per mg Δ^9-THC, the “plasma Cmax levels per mg of Δ^9-THC administered” value ([4]; intravenous administration (Ohlsson et al. 1980)) was 43.8 ng Δ^9-THC/ml plasma and the “inter-individual variability of Cmax” value ([4]; oral administration) was 42-115%. For the same compound, the “inter-individual variability of Cmax” value ([4]; oromucosal route of delivery) was 59-67%, the “inter-individual variability of Cmax” value ([4]; smoking cigarettes) was 32-115% and the “inter-individual variability of Cmax” value ([4]; vaporizer (Abrams)) was 47-85%. For the same compound, the “mean Cmax elevation” value (chronic neuropathic pain; Ware et al. 2010, single smoke inhalation of 25±1 mg cannabis, 9.4% Δ^9-THC, three times a day for 5 days) was 45 ng/mL, the “reduction of neuropathic pain (plateau, ceiling effect)” value (chronic neuropathic pain; Wilsey et al. 2008, smoking 19 mg or 34 mg total available Δ^9-THC in 3 doses) was 45% and the “reduction of pain intensity” value (chronic neuropathic pain; 3 hours) was 31%. For the same compound, the “reduction of pain intensity” value (chronic neuropathic pain; 5 hours) was 25%.
